These results are taken from US20090042951A1, “Blood Pressure Reduction in Salt-Sensitive Hypertension” (priority 2004, published 2009).

A value given as a limit tells only on which side of the number the result lay.

Test [1] concerns Dahl salt-sensitive (SS/Jr) rats. In words: Telemetric arterial blood pressure monitoring in Dahl salt-sensitive rats on high salt diet. The format is in vivo, rat. The note with it: for anti-hypertensive activity: found by the methods described herein. How it is done:
(§1) Male Dahl salt-resistant (SR/Jr) rats (250-300 gm, Harlan, Indianapolis, Ind.) were used as controls. Non-salt-sensitive, spontaneously hypertensive rats (SHR) were also employed in some experiments. Each rat was housed individually with a 12 hour light/12 hour dark cycle. The animal use protocols were approved by the Chicago—West Side Veterans Administration Institutional Animal Care and Use Committee.
(§2) Arterial blood pressures in unrestrained rats were monitored using a model TA11PA-C20 (Data Science, International, St. Paul, Minn.) implantable telemetric blood pressure monitoring system. The rats were anesthetized using an intraperitoneal injection (50 mg/kg i.p.) of nembutol sodium solution prior to implantation of the monitor. The radio-transmitter catheter was inserted via a midline abdominal incision into the left femoral artery and sutured in place after the tip of the catheter was advanced into the proximal aorta. The catheter was tunneled under the skin and the body of the transmitter was positioned in a subcutaneous pocket near the right flank of the rat. Data acquisition began after normal diurnal blood pressure variability had been reestablished, typically about seven days after surgery. Continuous measurements of pulsatile central aortic blood pressure were recorded by a receiver placed under each rat's cage.
A baseline arterial blood pressure was established for each rat from continuous measurements made over a two day period prior to the start of an experiment. […] Monitoring continued for four additional days. […] The p-value in both cases is less than 0.05.

The subject of test [2] is spontaneously hypertensive rats (SHR). Kind of test: Telemetric arterial blood pressure monitoring in spontaneously hypertensive rats on 8% NaCl diet. In kind it is in vivo, rat. The note with it: single IP injection 10 mg/kg, continuous telemetric recording. How it is done:
as §1
as §2, with “cage. […]” for “cage.”

In test [3] the test system is dogs. The note with it: administration of rolipram, increased cAMP; cited from earlier work.

With `COc1ccc(C(=O)Nc2c(Cl)cncc2Cl)cc1OC1CCCC1` [RP73401], in test [1], the anti-hypertensive activity result is “exhibit anti-hypertensive activity”.

Take `O=c1c2cccnc2n(-c2cccc([N+](=O)[O-])c2)c(=O)n1Cc1ccncc1` [RS25344]: the anti-hypertensive activity result in test [1] was “exhibit anti-hypertensive activity”.

For the compound `CCn1c(=O)c2ccccc2n(-c2cccc([N+](=O)[O-])c2)c1=O` [TVX2706], the anti-hypertensive activity entry in test [1] was “exhibit anti-hypertensive activity”.

For `COc1ccc(C2CNC(=O)C2)cc1OC1CCCC1` (stereo not drawn) [rolipram, Rolipram], the “effect on arterial blood pressure” value in test [2] was “brief, shallow dip in blood pressure immediately after rolipram injection followed by a gradual decline and recovery of blood pressure”. Besides, in test [1] (Dahl SS/Jr rat, 8% NaCl diet, single IP injection 10 mg/kg), the “duration of drop in blood pressure” value is over 2 days. In addition, the “effect on arterial blood pressure” value in test [1] (Dahl SS/Jr rat, 8% NaCl diet, single IP injection 10 mg/kg, continuous telemetric recording) is “very significant and prolonged (>2 days) drop in blood pressure”. Moreover, the anti-hypertensive activity entry in test [1] was “exhibit anti-hypertensive activity”. Also, in test [3], the renal vascular resistance entry is listed as “reduces renal vascular resistance” and the secretion of electrolytes entry is “promotes secretion of electrolytes”.
